Data published in ChEMBL document CHEMBL3885861, “Open TG-GATES”.

Organism: Rattus norvegicus
Assay: Open TG-GATES - Regimen: Daily Repeat
Type: toxicity, organism-based, Sprague-Dawley
Parameters: regimen Daily Repeat, gender Male, age 6 weeks
Conditions: in vivo, sc, 0.02 mg/kg, route subcutaneous injection, dose 20 ug/Kg, dose level Middle; for APTT / Bas / Eos / Fbg / Hb / Ht / Lym / MCH / MCHC / MCV / Mono / Neu / PT / Plat / RBC / Ret / WBC: tissue Blood; for KIDNEY_L / KIDNEY_R / KIDNEY_TOTAL: tissue Kidney; for LIVER: tissue Liver; for A/G / ALP / ALT / AST / BUN / CRE / Ca / Cl / DBIL / GLC / IP / K / LDH / Na / PL / RALB / TBIL / TC / TG / TP / gamma-GTP: tissue Plasma

CC(=O)O.N=C(N)NCCC[C@@H](NC(=O)[C@@H]1CCCN1C(=O)[C@@H]1CSSCCC(=O)N[C@@H](Cc2ccc(O)cc2)C(=O)N[C@@H](Cc2ccccc2)C(=O)N[C@@H](CCC(N)=O)C(=O)N[C@@H](CC(N)=O)C(=O)N1)C(=O)NCC(N)=O [DESMOPRESSIN ACETATE]
TERMINAL_BW (72 h, time 3 day): 235.6 g
APTT (72 h, time 3 day): 16.2 s
Bas (72 h, time 3 day): 0%
Eos (72 h, time 3 day): 1%
Fbg (72 h, time 3 day): 270.4 mg/dL
Hb (72 h, time 3 day): 13.3 g/dL
Ht (72 h, time 3 day): 40.4%
Lym (72 h, time 3 day): 69.8%
MCH (72 h, time 3 day): 21.6 pg
MCHC (72 h, time 3 day): 32.8%
MCV (72 h, time 3 day): 65.8 fL
Mono (72 h, time 3 day): 8.6%
Neu (72 h, time 3 day): 20.6%
PT (72 h, time 3 day): 11.8 s
Plat (72 h, time 3 day): 123.6 x10_4/uL
RBC (72 h, time 3 day): 613.8 x10_4/ul
Ret (72 h, time 3 day): 8%
WBC (72 h, time 3 day): 99.6 x10_2/uL
KIDNEY_L (72 h, time 3 day): 1.1 g
KIDNEY_R (72 h, time 3 day): 1.1 g
KIDNEY_TOTAL (72 h, time 3 day): 2.2 g
LIVER (72 h, time 3 day): 10.9 g
A/G (72 h, time 3 day): 2
ALP (72 h, time 3 day): 1305 IU/L
ALT (72 h, time 3 day): 39 IU/L
AST (72 h, time 3 day): 72.8 IU/L
BUN (72 h, time 3 day): 16.2 mg/dL
CRE (72 h, time 3 day): 0.4 mg/dL
Ca (72 h, time 3 day): 11.4 mg/dL
Cl (72 h, time 3 day): 103 meq/L
DBIL (72 h, time 3 day): 0.012 mg/dL
GLC (72 h, time 3 day): 193 mg/dL
IP (72 h, time 3 day): 7.9 mg/dL
K (72 h, time 3 day): 5.3 meq/L
LDH (72 h, time 3 day): 205.2 IU/L
Na (72 h, time 3 day): 135 meq/L
PL (72 h, time 3 day): 157.2 mg/dL
RALB (72 h, time 3 day): 3.8 g/dL
TBIL (72 h, time 3 day): 0.04 mg/dL
TC (72 h, time 3 day): 87.6 mg/dL
TG (72 h, time 3 day): 108.8 mg/dL
TP (72 h, time 3 day): 5.7 g/dL
gamma-GTP (72 h, time 3 day): 1 IU/L
TERMINAL_BW ([…], time 7 day): 276.7 g
TERMINAL_BW ([…], time 14 day): 325 g
TERMINAL_BW ([…], time 28 day): 428.4 g
APTT ([…], time 7 day): 16.6 s
Bas ([…], time 7 day): 0%
Eos ([…], time 7 day): 1.2%
Fbg ([…], time 7 day): 263.2 mg/dL
Hb ([…], time 7 day): 13 g/dL
Ht ([…], time 7 day): 39.8%
Lym ([…], time 7 day): 72.2%
MCH ([…], time 7 day): 20.8 pg
MCHC ([…], time 7 day): 32.7%
MCV ([…], time 7 day): 63.6 fL
Mono ([…], time 7 day): 6.8%
Neu ([…], time 7 day): 20%
PT ([…], time 7 day): 12.2 s
Plat ([…], time 7 day): 125.6 x10_4/uL
RBC ([…], time 7 day): 627 x10_4/ul
Ret ([…], time 7 day): 7.1%
WBC ([…], time 7 day): 114 x10_2/uL
APTT ([…], time 14 day): 17.5 s
Bas ([…], time 14 day): 0%
Eos ([…], time 14 day): 1.2%
Fbg ([…], time 14 day): 253.6 mg/dL
Hb ([…], time 14 day): 14.2 g/dL
Ht ([…], time 14 day): 43.2%
Lym ([…], time 14 day): 72%
MCH ([…], time 14 day): 20 pg
MCHC ([…], time 14 day): 32.8%
MCV ([…], time 14 day): 60.9 fL
Mono ([…], time 14 day): 10.6%
Neu ([…], time 14 day): 16.6%
PT ([…], time 14 day): 12.2 s
Plat ([…], time 14 day): 123.2 x10_4/uL
RBC ([…], time 14 day): 710.2 x10_4/ul
Ret ([…], time 14 day): 6%
WBC ([…], time 14 day): 101.6 x10_2/uL
APTT ([…], time 28 day): 16.7 s
Bas ([…], time 28 day): 0%
Eos ([…], time 28 day): 0.8%
Fbg ([…], time 28 day): 250 mg/dL
Hb ([…], time 28 day): 15 g/dL
Ht ([…], time 28 day): 46.3%
Lym ([…], time 28 day): 75.8%
MCH ([…], time 28 day): 19.3 pg
MCHC ([…], time 28 day): 32.5%
MCV ([…], time 28 day): 59.4 fL
Mono ([…], time 28 day): 6%
Neu ([…], time 28 day): 17.4%
PT ([…], time 28 day): 11.8 s
Plat ([…], time 28 day): 112 x10_4/uL
RBC ([…], time 28 day): 780.2 x10_4/ul
Ret ([…], time 28 day): 3.5%
WBC ([…], time 28 day): 128.4 x10_2/uL
KIDNEY_L ([…], time 7 day): 1.2 g
KIDNEY_R ([…], time 7 day): 1.2 g
KIDNEY_TOTAL ([…], time 7 day): 2.5 g
KIDNEY_L ([…], time 14 day): 1.3 g
KIDNEY_R ([…], time 14 day): 1.4 g
KIDNEY_TOTAL ([…], time 14 day): 2.7 g
KIDNEY_L ([…], time 28 day): 1.7 g
KIDNEY_R ([…], time 28 day): 1.7 g
KIDNEY_TOTAL ([…], time 28 day): 3.4 g
LIVER ([…], time 7 day): 12.1 g
LIVER ([…], time 14 day): 13.4 g
LIVER ([…], time 28 day): 16.1 g
A/G ([…], time 7 day): 2
ALP ([…], time 7 day): 1103 IU/L
ALT ([…], time 7 day): 29.6 IU/L
AST ([…], time 7 day): 69.6 IU/L
BUN ([…], time 7 day): 15.4 mg/dL
CRE ([…], time 7 day): 0.4 mg/dL
Ca ([…], time 7 day): 13.4 mg/dL
Cl ([…], time 7 day): 100.2 meq/L
DBIL ([…], time 7 day): 0.01 mg/dL
GLC ([…], time 7 day): 201 mg/dL
IP ([…], time 7 day): 7.9 mg/dL
K ([…], time 7 day): 5.1 meq/L
LDH ([…], time 7 day): 160.2 IU/L
Na ([…], time 7 day): 130.8 meq/L
PL ([…], time 7 day): 138 mg/dL
RALB ([…], time 7 day): 3.6 g/dL
TBIL ([…], time 7 day): 0.042 mg/dL
TC ([…], time 7 day): 75.8 mg/dL
TG ([…], time 7 day): 95 mg/dL
TP ([…], time 7 day): 5.5 g/dL
gamma-GTP ([…], time 7 day): 1 IU/L
A/G ([…], time 14 day): 1.8
ALP ([…], time 14 day): 1136 IU/L
ALT ([…], time 14 day): 29.4 IU/L
AST ([…], time 14 day): 68.2 IU/L
BUN ([…], time 14 day): 17.8 mg/dL
CRE ([…], time 14 day): 0.4 mg/dL
Ca ([…], time 14 day): 10.6 mg/dL
Cl ([…], time 14 day): 105.8 meq/L
DBIL ([…], time 14 day): 0.014 mg/dL
GLC ([…], time 14 day): 190.6 mg/dL
IP ([…], time 14 day): 7.3 mg/dL
K ([…], time 14 day): 5.3 meq/L
LDH ([…], time 14 day): 133.8 IU/L
Na ([…], time 14 day): 138.4 meq/L
PL ([…], time 14 day): 130.6 mg/dL
RALB ([…], time 14 day): 3.7 g/dL
TBIL ([…], time 14 day): 0.032 mg/dL
TC ([…], time 14 day): 65.2 mg/dL
TG ([…], time 14 day): 109.4 mg/dL
TP ([…], time 14 day): 5.7 g/dL
gamma-GTP ([…], time 14 day): 1 IU/L
A/G ([…], time 28 day): 1.6
ALP ([…], time 28 day): 834.8 IU/L
ALT ([…], time 28 day): 27.4 IU/L
AST ([…], time 28 day): 65 IU/L
BUN ([…], time 28 day): 18 mg/dL
CRE ([…], time 28 day): 0.4 mg/dL
Ca ([…], time 28 day): 9.1 mg/dL
Cl ([…], time 28 day): 104.2 meq/L
DBIL ([…], time 28 day): 0.014 mg/dL
GLC ([…], time 28 day): 190 mg/dL
IP ([…], time 28 day): 6.7 mg/dL
K ([…], time 28 day): 4.9 meq/L
LDH ([…], time 28 day): 143.8 IU/L
Na ([…], time 28 day): 137.6 meq/L
PL ([…], time 28 day): 135.2 mg/dL
RALB ([…], time 28 day): 3.7 g/dL
TBIL ([…], time 28 day): 0.048 mg/dL
TC ([…], time 28 day): 69.4 mg/dL
TG ([…], time 28 day): 107.8 mg/dL
TP ([…], time 28 day): 6.1 g/dL
gamma-GTP ([…], time 28 day): 0.4 IU/L
